This note sets out measurements from patent US20090048301A1 (IMCLONE SYSTEMS INCORPORATED, priority 2003, published 2009).

Experiment [1] concerns A431 human cancer cell line. The experiment can be described thus: Sulphorhodamine B (SRB) growth inhibition assay. Format: cell-based. As to conditions: A-431, A431 cells, 48 hours, read-out: SRB Assay: μM required to inhibit tumor cell growth by 50% (GI50). How it is done:
The in vitro growth inhibition activity of the compounds was determined by the Sulphorhodamine B assay. (Skehan P, Storeng R, Scudiero D, Monks A, McMahon J, Vistica D, Warren J T, Bokesch H, Kenney S, Boyd M R. New colorimetric cytotoxicity assay for anticancer-drug screening. J Natl Cancer Inst 82, 1107-1112, 1990). Sulphorhodamine B binds to basic amino acids and stains proteins which can be eluted and detected spectrophotometically by measuring absorbance at 515 nm. The absorbance was indicative of the total protein content of the cells fixed to the walls of the plate well at a given time by trichloroacetic acid, which is a measure of the viable cell concentration.
The in vitro growth inhibition activity of the compounds was determined using a Sulphorhodamine B assay. See, Skehan et al., “New colorimetric cytotoxicity assay for anticancer-drug screening,” J. Natl. Cancer Inst., 82, 1107-1112, (1990). Sulphorhodamine B binds to basic amino acids and stains proteins which can be eluted and detected spectrophotometically by measuring absorbance at 515 nm. The absorbance indicates the total protein content of the cells fixed to the walls of the plate well at a given time by trichloroacetic acid, which is a measure of the viable cell concentration.
The reagents used in the assay can be purchased from commercial sources and include Sulphorhodamine B 0.4% (w/v) in 1% (v/v) acetic acid (Sigma Cat#S-1402); trichloroacetic acid 50% (w/v) in deionized water, working solution (Sigma Cat#T-9159); and trizma base (Tris) 10 mM working solution, pH 7.5 (Sigma Cat#T-7693).
The procedure was cared out over four days. In Day 1, the cells were seeded in a seed 10,000 cells/100 μL/well in 96 well plate in duplicates as per template. Also, seed cells in extra plate for time zero (To plate). Thereafter, the cells were incubated for 24 hours at 37° C. with 5% CO2.
On Day 2, the test compound was added to the cells at five log doses from 100 μM to 0.01 μM (Volume of addition=100 μL in 1% DMSO for all compound concentrations, Control treatment=1% DMSO).
The compounds were prepared by weighing the test compounds in 1.5 ml eppendorf tubes and calculating the volume of DMSO to be added to bring the concentration of the compound to 20 mM. Thereafter, a 20 mM stock was made and diluted by four 10 fold dilutions in DMSO to get 2, 0.2, 0.02 and 0.002 mM solutions. Each solution was diluted 100 times (10 μL to 1 ml medium) and a further addition to the culture plate (100 μL) to half the concentration of cells was made. The final well concentration for 20 mM stock was 100 μM and similarly with other test concentrations.
The cells were incubated for 48 hours at 37° C. with 5% CO2 and terminated by adding 50 μL of 50% cold trichloroacetic acid (10% to final). Thereafter, the cells were incubated for one hour at 4° C.
On Day 4, the cells were fixed to the wells by the addition of 50 μL of 50% cold trichloroacetic acid (10% to final) and incubated for 1 hour at 4° C. The supernatant was discarded by force inverting the plate into the sink followed by washing thrice with tap water and the plates are then air-dried. 100 μL SRB (0.4% in 1% acetic acid) was added to each well and the plates were incubated for 10 minutes at room temperature. Unbound dye was removed by force inverting the plate into the sink and washing thrice with 1% acetic acid. Thereafter, the plates were allowed to air dry.
Bound SRB was solubilized with 100 μL of 10 mM Tris, pH 7.4 and the absorbance was measured at a wavelength of 515 nm.
A sample set of calculations was performed as follows. The percentage growth was calculated by T-To/C-To X 100 if T>To and T-To/To X 100 if T<To, wherein T is Test OD (with compound), C is Control OD, To is Time Zero OD (cell growth at the time of drug addition). […]

The test system of experiment [2] is bovine tubulin. Kind of experiment: In vitro tubulin polymerization assay (turbidity at 340 nm). Format: biochemical. As to conditions: 10 μM compound, 30 minute data point, vs 1% DMSO control. The procedure, abridged:
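Bovine tubulin (97%, <3% MAPs) at 3 mg/ml final in G-PEM pH 7 with 1 mM GTP and 5% glycerol, added cold to compound wells at 37° C (1% DMSO final). A340 read each minute for 30 min; percent inhibition from 30-min point versus DMSO control.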

Consider `CS(=O)(=O)c1ccc(-c2nnc(-c3cccnc3NCCCN3CCCC3=O)[nH]2)cc1` [Compound 75, 1-(3-{3-[5-(4-Methanesulfonyl-phenyl)-4H-[1,2,4]triazol-3-yl]-pyridin-2-ylamino}-propyl)-pyrrolidin-2-one], for which the GI50 (usually the concentration giving 50% growth inhibition) in experiment [1] was found to be 80 µM. The “Tubulin Assay: percent inhibition at 10 μM based on 30 minute data” value (shortened to “Tubulin Assay: percent inhibition”) in experiment [2] is reported as 60%.

In the case of `COc1ccc(OC)c(Nc2nnc(-c3cccnc3Nc3ccc4c(c3)OCO4)[nH]2)c1` [Compound 9, Benzo[1,3]dioxol-5-yl-{3-[5-(2,5-dimethoxy-phenylamino)-4H-[1,2,4]triazol-3-yl]-pyridin-2-yl}-amine], the GI50 in experiment [1] was 25 µM. In addition, the “Tubulin Assay: percent inhibition” value in experiment [2] is 47%.

Consider `COc1cccc(Nc2nnc(-c3cccnc3NCc3ccc4c(c3)OCO4)o2)c1` [Compound 186, Benzo[1,3]dioxol-5-ylmethyl-{3-[5-(3-methoxy-phenylamino)-[1,3,4]oxadiazol-2-yl]-pyridin-2-yl}-amine], for which the GI50 in experiment [1] worked out at 100 µM. Further, in experiment [2], the “Tubulin Assay: percent inhibition” value was 42%.

Regarding `c1cnc(NCc2ccc3c(c2)OCO3)c(-c2nnc(Nc3ccc4c(c3)OCO4)[nH]2)c1` [Compound 33, {3-[5-(Benzo[1,3]dioxol-5-ylamino)-4H-[1,2,4]triazol-3-yl]-pyridin-2-yl}-benzo[1,3]dioxol-5-ylmethyl-amine], the GI50 in experiment [1] amounted to 10 µM. In experiment [2], the “Tubulin Assay: percent inhibition” value came out at 60%.

On to `COc1cc(Nc2ncccc2-c2nnc(Nc3cc(Cl)cc(Cl)c3)[nH]2)cc(OC)c1` [Compound 53, {3-[5-(3,5-Dichloro-phenylamino)-4H-[1,2,4]triazol-3-yl]-pyridin-2-yl}-(3,5-dimethoxy-phenyl)-amine], for which the GI50 in experiment [1] came out at 6 µM. For the same molecule, in experiment [2], the “Tubulin Assay: percent inhibition” value is 44%.

As for `COc1cc(Nc2nnc(-c3cccnc3Nc3cc(OC)cc(OC)c3)o2)cc(OC)c1` [Compound 187, (3,5-Dimethoxy-phenyl)-{3-[5-(3,5-dimethoxy-phenylamino)-[1,3,4]oxadiazol-2-yl]-pyridin-2-yl}-amine], the GI50 in experiment [1] came out at 80 µM. For the same molecule, in experiment [2], the “Tubulin Assay: percent inhibition” value stood at 48%.

In the case of `COc1cc(CNc2ncccc2-c2nnc(-c3cccc(OC)c3)[nH]2)cc(OC)c1` [Compound 79, (3,5-Dimethoxy-benzyl)-{3-[5-(3-methoxy-phenyl)-4H-[1,2,4]triazol-3-yl]-pyridin-2-yl}-amine], the 50% growth inhibitory concentration (GI50) in experiment [1] worked out at 20 µM. The “Tubulin Assay: percent inhibition” value in experiment [2] is on record as 32%.

As to `O=C1CCCN1CCCNc1ncccc1-c1nnc(Nc2ccc3c(c2)OCO3)o1` [Compound 194, 1-(3-{3-[5-(Benzo[1,3]dioxol-5-ylamino)-[1,3,4]oxadiazol-2-yl]-pyridin-2-ylamino}-propyl)-pyrrolidin-2-one], the GI50 in experiment [1] came out at 3 µM. Moreover, the “Tubulin Assay: percent inhibition” value in experiment [2] amounted to 80%.

Consider `COc1ccc(Nc2nnc(-c3cccnc3NCc3ccc4c(c3)OCO4)o2)cc1OC` [Compound 180, Benzo[1,3]dioxol-5-ylmethyl-{3-[5-(3,4-dimethoxy-phenylamino)-[1,3,4]oxadiazol-2-yl]-pyridin-2-yl}-amine], for which the GI50 in experiment [1] was 1.5 µM. For the same molecule, the “Tubulin Assay: percent inhibition” value in experiment [2] was determined as 32%.

Regarding `COc1ccc(Nc2nnc(-c3cccnc3Nc3ccc4c(c3)OCO4)[nH]2)c(OC)c1` [Compound 10, Benzo[1,3]dioxol-5-yl-{3-[5-(2,4-dimethoxy-phenylamino)-4H-[1,2,4]triazol-3-yl]-pyridin-2-yl}-amine], in experiment [1], the GI50 is 20 µM. Further, the “Tubulin Assay: percent inhibition” value in experiment [2] is given as 73%.

As for `c1ccc(-c2nnc(Nc3ccc4c(c3)OCO4)[nH]2)c(NCc2ccncc2)c1` [Compound 111, Benzo[1,3]dioxol-5-yl-(5-{2-[(pyridin-4-ylmethyl)-amino]-phenyl}-4H-[1,2,4]triazol-3-yl)-amine], the concentration for 50% growth inhibition (GI50) in experiment [1] was found to be 10 µM. Besides, in experiment [2], the “Tubulin Assay: percent inhibition” value came to 70%.

Regarding `COc1cc(OC)cc(-c2nnc(-c3ccccc3NCc3ccncc3)[nH]2)c1` [Compound 132, {2-[5-(3,5-Dimethoxy-phenyl)-4H-[1,2,4]triazol-3-yl]-phenyl}-pyridin-4-ylmethyl-amine], the GI50 in experiment [1] is 100 µM. Further, the “Tubulin Assay: percent inhibition” value in experiment [2] stood at 46%.

Turning to `Fc1ccc(OCc2nnc(-c3cccnc3NCc3ccc4c(c3)OCO4)[nH]2)cc1` [Compound 109, Benzo[1,3]dioxol-5-ylmethyl-{3-[5-(4-fluoro-phenoxymethyl)-4H-[1,2,4]triazol-3-yl]-pyridin-2-yl}-amine], the GI50 in experiment [1] is 30 µM. For the same molecule, the “Tubulin Assay: percent inhibition” value in experiment [2] was determined as 41%.

Take `FC(F)(F)c1ccc(-c2nnc(-c3cccnc3NCc3ccc4c(c3)OCO4)[nH]2)cc1` [Compound 84, Benzo[1,3]dioxol-5-ylmethyl-{3-[5-(4-trifluoromethyl-phenyl)-4H-[1,2,4]triazol-3-yl]-pyridin-2-yl}-amine]: in experiment [1], the GI50 is 2.5 µM. Further, the “Tubulin Assay: percent inhibition” value in experiment [2] is listed as 27%.

With `COc1ccc(Nc2nnc(-c3cccnc3NCc3cccnc3)o2)cc1OC` [Compound 190, {3-[5-(3,4-Dimethoxy-phenylamino)-[1,3,4]oxadiazol-2-yl]-pyridin-2-yl}-pyridin-3-ylmethyl-amine], the GI50 in experiment [1] amounted to 15 µM. Further, the “Tubulin Assay: percent inhibition” value in experiment [2] was found to be 56%.

As to `FC(F)(F)Oc1ccc(Nc2nnc(-c3cccnc3NCc3ccc4c(c3)OCO4)o2)cc1` [Compound 179, Benzo[1,3]dioxol-5-ylmethyl-{3-[5-(4-trifluoromethoxy-phenylamino)-[1,3,4]oxadiazol-2-yl]-pyridin-2-yl}-amine], the GI50 in experiment [1] is 30 µM. In addition, the “Tubulin Assay: percent inhibition” value in experiment [2] stood at 28%.

For the molecule `c1ccc(-c2nnc(Nc3ccc4c(c3)OCO4)o2)c(NCc2ccncc2)c1` [Compound 225, Benzo[1,3]dioxol-5-yl-(5-{2-[(pyridin-4-ylmethyl)-amino]-phenyl}-[1,3,4]oxadiazol-2-yl)-amine], the GI50 in experiment [1] turned out to be 15 µM. Besides, the “Tubulin Assay: percent inhibition” value in experiment [2] is given as 91%.

As to `Fc1cccc(-c2nnc(-c3cccnc3NCc3ccc4c(c3)OCO4)[nH]2)c1` [Compound 82, Benzo[1,3]dioxol-5-ylmethyl-{3-[5-(3-fluoro-phenyl)-4H-[1,2,4]triazol-3-yl]-pyridin-2-yl}-amine], in experiment [1], the GI50 was determined as 20 µM. Moreover, the “Tubulin Assay: percent inhibition” value in experiment [2] is given as 30%.

In the case of `FC(F)(F)c1ccc(-c2nnc(-c3cccnc3NCc3cccnc3)[nH]2)cc1` [Compound 86, Pyridin-3-ylmethyl-{3-[5-(4-trifluoromethyl-phenyl)-4H-[1,2,4]triazol-3-yl]-pyridin-2-yl}-amine], the GI50 in experiment [1] came to 2.2 µM. The “Tubulin Assay: percent inhibition” value in experiment [2] is reported as 31%.

With `COc1cc(Nc2ncccc2-c2nnc(Nc3ccc(OC)cc3OC)[nH]2)cc(OC)c1` [Compound 12, (3,5-Dimethoxy-phenyl)-{3-[5-(2,4-dimethoxy-phenylamino)-4H-[1,2,4]triazol-3-yl]-pyridin-2-yl}-amine], the GI50 in experiment [1] was 20 µM. The “Tubulin Assay: percent inhibition” value in experiment [2] was determined as 46%.
